From PubChem BioAssay (NCI)
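Interpolation was linear, between the two tested concentrations surrounding the appropriate level; five concentrations were tested over 48 hours in 96-well plates. Abbreviation: GI50, concentration required for 50% inhibition of growth. At the TGI there is no net growth.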

Legend:
Assay in all cases: DTP human tumour cell line panel, 48 h
OVCAR-3 ovarian = system: OVCAR-3 ovarian
MALME-3M melanoma = system: MALME-3M melanoma
A498 renal = system: A498 renal
COLO 205 colon = system: COLO 205 colon
K-562 leukemia = system: K-562 leukemia
786-0 renal = system: 786-0 renal
CAKI-1 renal = system: CAKI-1 renal
MDA-MB-231 breast = system: MDA-MB-231 breast
A549 NSCLC = system: A549 NSCLC
NCI-H226 lung = system: NCI-H226 lung
HCT-116 colon = system: HCT-116 colon
UO-31 renal = system: UO-31 renal
LOX IMVI melanoma = system: LOX IMVI melanoma
SNB-75 CNS = system: SNB-75 CNS
RPMI-8226 leukemia = system: RPMI-8226 leukemia
HT29 colon = system: HT29 colon
UACC-62 melanoma = system: UACC-62 melanoma
HL-60(TB) leukemia = system: HL-60(TB) leukemia
SF-539 CNS = system: SF-539 CNS
SW-620 colon = system: SW-620 colon
SF-295 CNS = system: SF-295 CNS
KM12 colon = system: KM12 colon
SNB-19 CNS = system: SNB-19 CNS
PC-3 prostate = system: PC-3 prostate
OVCAR-4 ovarian = system: OVCAR-4 ovarian
SK-MEL-5 melanoma = system: SK-MEL-5 melanoma
CCRF-CEM leukemia = system: CCRF-CEM leukemia
NCI-H23 lung = system: NCI-H23 lung
SF-268 CNS = system: SF-268 CNS
BT-549 breast = system: BT-549 breast
NCI-H522 lung = system: NCI-H522 lung
MDA-MB-435 = system: MDA-MB-435
HCC-2998 colon = system: HCC-2998 colon
TK-10 renal = system: TK-10 renal
HCT-15 colon = system: HCT-15 colon
HS 578T breast = system: HS 578T breast
U251 CNS = system: U251 CNS
ACHN renal = system: ACHN renal
OVCAR-5 ovarian = system: OVCAR-5 ovarian
OVCAR-8 ovarian = system: OVCAR-8 ovarian
HOP-62 NSCLC = system: HOP-62 NSCLC
SK-OV-3 ovarian = system: SK-OV-3 ovarian
SK-MEL-28 melanoma = system: SK-MEL-28 melanoma
MOLT-4 leukemia = system: MOLT-4 leukemia
M14 melanoma = system: M14 melanoma
EKVX NSCLC = system: EKVX NSCLC
T-47D breast = system: T-47D breast
UACC-257 melanoma = system: UACC-257 melanoma
SN12C renal = system: SN12C renal
MCF7 breast = system: MCF7 breast
RXF 393 renal = system: RXF 393 renal
SR leukemia = system: SR leukemia
HOP-92 NSCLC = system: HOP-92 NSCLC
IGROV1 ovarian = system: IGROV1 ovarian
MDA-MB-468 breast = system: MDA-MB-468 breast
NCI-H460 lung = system: NCI-H460 lung
SK-MEL-2 melanoma = system: SK-MEL-2 melanoma
DU-145 prostate = system: DU-145 prostate

## COc1ccccc1[C@H]1C(C(=O)c2ccc(O)cc2)C2(N[C@@H]1c1ccccc1)C(=O)Nc1ccc(Br)cc12 (stereo partly specified)
OVCAR-3 ovarian
  GI50: 5.35 µM
  TGI: 12.4 µM
MALME-3M melanoma
  GI50: 8.42 µM
  TGI: 16.1 µM
A498 renal
  GI50: 7.26 µM
  TGI: 15 µM
COLO 205 colon
  GI50: 8.67 µM
  TGI: 18.2 µM
K-562 leukemia
  GI50: 10.7 µM
  TGI: 43.1 µM
786-0 renal
  GI50: 8.4 µM
  TGI: 16.2 µM
CAKI-1 renal
  GI50: 2.94 µM
  TGI: 10.7 µM
MDA-MB-231 breast
  GI50: 6.39 µM
  TGI: 13.3 µM
A549 NSCLC
  GI50: 6.04 µM
  TGI: 13.6 µM
NCI-H226 lung
  GI50: 5.1 µM
  TGI: 14.9 µM
HCT-116 colon
  GI50: 7.03 µM
  TGI: 15.4 µM
UO-31 renal
  GI50: 6.07 µM
  TGI: 12.8 µM
LOX IMVI melanoma
  GI50: 7.63 µM
  TGI: 18.8 µM
SNB-75 CNS
  GI50: 5.98 µM
  TGI: 13.6 µM
RPMI-8226 leukemia
  GI50: 8.42 µM
  TGI: 47.7 µM
HT29 colon
  GI50: 7.91 µM
  TGI: 17.6 µM
UACC-62 melanoma
  GI50: 7.15 µM
  TGI: 14.2 µM
HL-60(TB) leukemia
  GI50: 12.2 µM
  TGI: 39.3 µM
SF-539 CNS
  GI50: 8.07 µM
  TGI: 15.4 µM
SW-620 colon
  GI50: 8.34 µM
  TGI: 16.8 µM
SF-295 CNS
  GI50: 6.63 µM
  TGI: 14.1 µM
KM12 colon
  GI50: 7.73 µM
  TGI: 16.9 µM
SNB-19 CNS
  GI50: 7.62 µM
  TGI: 14.8 µM
PC-3 prostate
  GI50: 4.08 µM
  TGI: 13.9 µM
OVCAR-4 ovarian
  GI50: 7.19 µM
  TGI: 16.4 µM
SK-MEL-5 melanoma
  GI50: 9.09 µM
  TGI: 17.1 µM
CCRF-CEM leukemia
  GI50: 7.57 µM
  TGI: 24.4 µM
NCI-H23 lung
  GI50: 8.25 µM
  TGI: 16.7 µM
SF-268 CNS
  GI50: 7.05 µM
  TGI: 17.1 µM
BT-549 breast
  GI50: 6.03 µM
  TGI: 13.4 µM
NCI-H522 lung
  GI50: 2.77 µM
  TGI: 10.4 µM
MDA-MB-435
  GI50: 7.39 µM
  TGI: 15.1 µM
HCC-2998 colon
  GI50: 6.55 µM
  TGI: 14 µM
TK-10 renal
  GI50: 7.34 µM
  TGI: 15.2 µM
HCT-15 colon
  GI50: 8.02 µM
  TGI: 18.1 µM
HS 578T breast
  GI50: 8.2 µM
  TGI: 23.2 µM
U251 CNS
  GI50: 6.62 µM
  TGI: 13.9 µM
ACHN renal
  GI50: 7.72 µM
  TGI: 15 µM
OVCAR-5 ovarian
  GI50: 7.47 µM
  TGI: 14.7 µM
OVCAR-8 ovarian
  GI50: 8.3 µM
  TGI: 16.7 µM
HOP-62 NSCLC
  GI50: 8.27 µM
  TGI: 16.7 µM
SK-OV-3 ovarian
  GI50: 8.08 µM
  TGI: 16.3 µM
SK-MEL-28 melanoma
  GI50: 8.02 µM
  TGI: 15.4 µM
MOLT-4 leukemia
  GI50: 4.42 µM
  TGI: 23.2 µM
M14 melanoma
  GI50: 7.35 µM
  TGI: 15.4 µM
EKVX NSCLC
  GI50: 7.61 µM
  TGI: 16.5 µM
T-47D breast
  GI50: 6.67 µM
  TGI: 16.6 µM
UACC-257 melanoma
  GI50: 7.81 µM
  TGI: 15.5 µM
SN12C renal
  GI50: 2.65 µM
  TGI: 9.49 µM
MCF7 breast
  GI50: 6.66 µM
  TGI: 19.1 µM
RXF 393 renal
  GI50: 5.63 µM
  TGI: 13.8 µM
SR leukemia
  GI50: 5.57 µM
  TGI: 18.4 µM
HOP-92 NSCLC
  GI50: 6.52 µM
  TGI: 14.7 µM
IGROV1 ovarian
  GI50: 4.56 µM
  TGI: 11.8 µM
MDA-MB-468 breast
  GI50: 2.22 µM
  TGI: 8.66 µM
NCI-H460 lung
  GI50: 6.91 µM
  TGI: 15 µM
SK-MEL-2 melanoma
  GI50: 8.01 µM
  TGI: 15.8 µM
DU-145 prostate
  GI50: 9.39 µM
  TGI: 18 µM
